From the NIST ThermoML archive (doi:10.1016/j.jct.2008.05.006)
Several values for one entry are separate records, joined by “and”; a condition that tells them apart may be missing. Equal values may be shown once.

Experiments:
[1] = for vapor or sublimation pressure: Calculated from knudsen effusion weight loss; for Triple point temperature: DTA
[2] = Molar enthalpy of transition or fusion; settings: Crystal 3; DSC
[3] = molar heat capacity at constant pressure; settings: 101.33 kPa, Small sample (50 mg) DSC

O=C1NC(=O)C(=O)N1 [parabanic acid]
Settings	molar heat capacity at constant pressure [J/K/mol]	vapor or sublimation pressure
[1], 381.17 K, Crystal 3	–	0.0001133 kPa and 0.0001078 kPa
[1], 383.17 K, Crystal 3	–	0.0001373 kPa and 0.0001334 kPa
[1], 385.18 K, Crystal 3	–	0.0001672 kPa and 0.0001691 kPa and 0.000159 kPa
[1], 387.17 K, Crystal 3	–	0.0001972 kPa [middle of 4 runs]
[1], 389.17 K, Crystal 3	–	0.0002355 kPa and 0.0002336 kPa and 0.0002271 kPa
[1], 391.18 K, Crystal 3	–	0.000285 kPa and 0.000287 kPa
[1], 393.18 K, Crystal 2	–	0.0003353 kPa and 0.0003334 kPa
[1], 395.17 K, Crystal 2	–	0.0004133 kPa and 0.0004042 kPa
[1], 397.16 K, Crystal 2	–	0.0004877 kPa
[1], 397.18 K, Crystal 2	–	0.000484 kPa
[1], 399.17 K, Crystal 2	–	0.0005715 kPa
[1], 401.18 K, Crystal 2	–	0.0006635 kPa
[1], 403.17 K, Crystal 2	–	0.0008169 kPa
[1], 405.2 K, Crystal 2	–	0.0009469 kPa and 0.0009581 kPa
[1], 406.17 K, Crystal 2	–	0.001047 kPa and 0.001039 kPa
[3], 263.15 K, Crystal 3	153.78	–
[3], 265.15 K, Crystal 3	154.68	–
[3], 270.15 K, Crystal 3	157.16	–
[3], 273.15 K, Crystal 3	158.53	–
[3], 275.15 K, Crystal 3	159.48	–
[3], 280.15 K, Crystal 3	161.53	–
[3], 285.15 K, Crystal 3	163.59	–
[3], 290.15 K, Crystal 3	165.7	–
[3], 295.15 K, Crystal 3	167.6	–
[3], 300.15 K, Crystal 3	169.81	–
[3], 305.15 K, Crystal 3	172.08	–
[3], 310.15 K, Crystal 3	174.5	–
[3], 315.15 K, Crystal 3	177.24	–
[3], 320.15 K, Crystal 3	179.33	–
[3], 325.15 K, Crystal 3	180.62	–
[3], 330.15 K, Crystal 3	182.52	–
[3], 335.15 K, Crystal 3	184.84	–
[3], 340.15 K, Crystal 3	187.21	–
[3], 345.15 K, Crystal 3	189.26	–
[3], 350.15 K, Crystal 3	191.69	–
[3], 355.15 K, Crystal 3	193.8	–
[3], 360.15 K, Crystal 3	196.01	–
[3], 365.15 K, Crystal 3	197.59	–
[3], 370.15 K, Crystal 3	200.07	–
[3], 375.15 K, Crystal 3	201.42	–
[3], 380.15 K, Crystal 3	203.59	–
[3], 400.15 K, Crystal 2	211.5	–
[3], 405.15 K, Crystal 2	213.6	–
[3], 410.15 K, Crystal 2	215.93	–
[3], 415.15 K, Crystal 2	216.68	–
[3], 420.15 K, Crystal 2	218.83	–
[3], 425.15 K, Crystal 2	220.28	–
[3], 430.15 K, Crystal 2	222.89	–
[3], 435.15 K, Crystal 2	225.62	–
[3], 440.15 K, Crystal 2	227.43	–
[3], 445.15 K, Crystal 2	229.93	–
[3], 450.15 K, Crystal 2	232.06	–
[3], 455.15 K, Crystal 2	234.43	–
[3], 460.15 K, Crystal 2	236.96	–
[3], 465.15 K, Crystal 2	239.26	–
[3], 470.15 K, Crystal 2	241.31	–
[3], 473.15 K, Crystal 2	243.13	–

[1]
Settings	Triple point temperature [K]
Crystal 1	520
Crystal 2	509.8
Crystal 3	392.3

Settings	Molar enthalpy of transition or fusion [kcal/mol]
[2]	0.502
